One series addresses T1, MUC2 glycoprotein (Homo sapiens, UniProt Q02817).
T1 construct: Sections of healthy gastric and colonic mucosae and of human colorectal adenoma; from tissue; host or cells: paraffin sections of human colonic adenoma
Kind of series: Labeling of colonic adenoma sections, recognition of MUC2. Conditions: FIG. 4. The method, then:
(§1) Sections of healthy gastric and colonic mucosae and of human colorectal adenoma (5 μm thick) were fixed for 24 h with 4% paraformaldehyde and embedded in paraffin. For the labeling, the sections were first of all deparaffinized in toluene and rehydrated in 95% alcohol. After rinsing in water, the slides are brought to boiling for 10 minutes in a citrate buffer (50 mM, pH 4). Once the temperature of the buffer has returned to 25-30° C., the slides are then rinsed with PBS and then successively incubated for 15 minutes in a 0.15% hydrogen peroxide (H2O2) solution and a kit for blocking the endogenous biotin for 1 h. The sections are then blocked using a milk-enriched buffer for 1 h at ambient temperature, and are then incubated at 4° C. for 18 h with the peptides at various concentrations (20 μM, 10 μM, 1 μM, 0.2 μM, 0.04 μM) or the antibodies (MUC5AC: PM8 at a 1/100 dilution and MUC2: Lum2-3 at a 1/100 dilution) diluted in PBS. The biotinylated peptides bound to the target are visualized using goat anti-biotin antibodies incubated for one hour at ambient temperature and then diluted in PBS at 1 μg/ml. A second incubation for one hour at ambient temperature is carried out in the presence of peroxidase-labeled anti-goat antibodies at 0.2 μg/ml diluted in PBS supplemented with 0.1% of Tween-20. […]

The next series deals with rat MUC5AC glycoprotein. In words: ELISA on MUC5AC purified from rat stomach. In kind it is binding. As to conditions: ELISA (FIG. 2), read-out: apparent dissociation constant K*d. The method, then:
(§2) The interaction between the peptide and MUC5AC is evaluated by means of an ELISA assay. The mucin MUC5AC (purified from pieces of human tumor on the basis of mucin extraction and purification protocols described in literature) is immobilized on a plate at the concentration of 12.5 μg/ml overnight at 4° C. The nonspecific sites are then saturated in a buffer enriched with milk, for 2 hours at 4° C. After several rinses, the peptide CPSIYPLLC (SEQ ID No: 2) coupled to biotin is incubated at increasing concentrations (10^−3M and 10^−6M) for 2 hours at 37° C. The biotinylated peptides bound to MUC5AC are visualized using goat anti-biotin antibodies incubated for one hour at ambient temperature and then diluted in PBS at 1 μg/ml. After removal of the unbound antibodies, a second incubation for one hour at ambient temperature is carried out in the presence of peroxidase-labeled anti-goat antibodies at 0.2 μg/ml, diluted in PBS supplemented with 0.1% of Tween-20. The peroxidase coloration reaction is carried out in the presence of H2O2-enriched ABTS. The measurement of the OD at 405 nm makes it possible to calculate the K*d MUC5AC value. The interaction between the peptide and MUC5AC is also evaluated by means of the previously described ELISA assay on the mucin MUC5AC purified beforehand from mouse and rat stomach.
In general terms: ELISA stands for enzyme-linked immunosorbent assay.

A further series has as its target T2, MUC5AC (Homo sapiens, UniProt P98088).
T2 construct: Sections of healthy gastric and colonic mucosae and of human colorectal adenoma; from tissue; host or cells: paraffin sections of human gastric epithelium and colorectal adenoma
In words: Labeling of tissue sections with biotinylated peptide (specificity). As to conditions: FIG. 4. The method, then: as §1

The target in series [1] is mouse MUC5AC glycoprotein. In words: ELISA on MUC5AC purified from mouse stomach. The class given is binding. As to conditions: ELISA (FIG. 2), read-out: apparent dissociation constant K*d. The method, then:
as §2

The test system of series [2] is mucin MUC5AC in the stomach. In words: Molecular MRI (RARE, 7T) of the stomach of tumor-bearing mice. The class given is in vivo. As to conditions: mice bearing MUC5AC-positive or -negative tumor. The method, then: (§3) The selected imaging parameters are the following: • RARE (rapid acquisition with relaxation enhancement) sequence (7T) • TR/TEeff=3000/48.7 ms, • RARE factor=4, • NEX=4, • Matrix=256×256 • FOV=2.3 cm • slice thickness=1 mm • 20 axial slices • spatial resolution=90 μm • acquisition time=12 min 48 s Mice: • bearing an MUC5AC-positive tumor were injected with PEG750-C60c (100 μmol/kg), • bearing an MUC5AC-positive tumor were injected with the control compound (100 μmol/kg) and • bearing an MUC5AC-negative tumor were injected with PEG750-C60c (100 μmol/kg).
MUC5AC. […] Indeed, using PEG750-C60c at equal concentration in animals having tumors with an opposite MUC5AC expression profile, but having the same mucin secretion characteristic in the stomach, a differential response was clearly observed in the tumor, but not in the stomach.

Series [3] deals with HT29-5M21 cells (MUC5AC cells). In words: USPIO binding test on colonic cell model, iron assay by relaxometry. The class given is cell-based, human. Conditions: increasing concentrations 1/2/4/8 mM iron, 1 H at 37° C. The method, then:
(§4) After 21 days of culture for HT29-5M21 cells (MUC5AC cells), the literature reports that MUC5AC is massively expressed. […] The cells are rinsed with PBS at 4° C. and then directly brought into contact with 0.5 ml of USPIO diluted in PBS, for 1 H at 37° C. (incubator, 5% CO2). The USPIOs are tested at various iron concentrations of 1/2/4/8 mM on each of the lines. After the supernatant has been drawn off, the cells are washed twice with PBS and then scraped so as to subsequently be taken up with 250 μl of PBS (twice). The suspensions are subsequently freeze-dried and then taken up with 100 μl of a 5N HCl solution for 4 H at 80° C. in a water bath. The assay is then carried out using Paris reagent, before carrying out the relaxometry (Bruiser Minispec 60 MHz). The secretion of MUC5AC by the HT29 model and the absence of secretion with HCT116 were verified in the study.

In series [4] the test system is HCT116 cells (control cells, MUC5AC-negative). In words: USPIO binding test on colonic control cells, iron assay by relaxometry. Conditions: control cells HCT116, 1/2/4/8 mM iron, 1 H at 37° C. In kind it is cell-based, human. The method, then: as §4
The next series can be described thus: Relaxivity measurements. The class given is physicochemical. As to conditions: 37° C. The method, then:
[…] The longitudinal relaxation time T1 is measured using an inversion recovery sequence and the transverse relaxation time T2 is measured using a CPMG technique.
The relaxation rates R1 (=1/T1) and R2 (=1/T2) were calculated for various concentrations of total metal (ranging from 0.1×10^−3 to 1×10^−3 mol/l) in aqueous solution at 37° C. The correlation between R1 or R2 as a function of the concentration is linear, and the slope represents the relaxivity r1 (R1/C) or r2 (R2/C) expressed as (1/second)×(1/mmol/l), i.e. (mM^−1·s^−1).

The nature of series [5]: Particle size (PCS) and magnetic characterization. The class given is physicochemical. The method, then:
Determined by PCS (Malvern 4700 instrument, laser 488 nm at 90°) on a sample diluted to ˜1 millimolar with water for injection filtered through 0.22 μm.

A short description of series [6]: Plasma kinetics: iron concentration by relaxometry in plasma of imaged mice. The class given is in vivo. As to conditions: 1 h-1 h 30 after injection. The text has this: IV.2 Plasma Kinetics: Calculation of the Concentration of USPIO Contained in the Plasma of the Imaged Mice
It can be observed in table 3 that the iron concentrations are proportional to the dose of product injected.

Series [7] relates to HT295M21 and HCT116 xenografts. Kind of series: Detection of USPIOs on tumor xenograft tissue after in vivo injection (anti-PEG antibody). Also noted: species or system mice. The text has this:
(§5) In the experiments carried out, the PEG750-C60C was detected using the anti-PEG antibody on HT295M21 xenograft, on HCT116 xenograft and on a section of mouse stomach without counterstaining. The control compound was detected on a section of mouse stomach without counterstaining. The sections were visualized in parallel with an anti-MUC5AC antibody on HT295M21 and HCT116.

The test system of series [8] is MUC5AC-negative tumor (HCT116 xenograft). Kind of series: Molecular MRI (RARE, 7T) of tumor in mice bearing MUC5AC-negative tumor. In kind it is in vivo. The method, then: as §3
Series [9] has as its system MUC5AC-positive tumor (HT29 5M21 xenograft). Kind of series: Molecular MRI (RARE, 7T) of tumor in mice bearing MUC5AC-positive tumor. The class given is in vivo. The method, then: as §3
The test system of a further series is mouse gastric tissue. Kind of series: Detection of USPIOs on mouse stomach sections after in vivo injection (anti-PEG antibody). Conditions: section of mouse stomach.
Text: as §5

Values joined by “and” are separate entries in the source; they are usually repeats but may differ in a detail not shown here. Equal values may be shown once. Positions of bridges follow the written chain, without caps; N, C: chain ends. Residues, ends and D or L forms follow the SMILES beside them. No end group written: not given here.

The record followed here is patent US9107948B2, “Compounds for diagnosing diseases associated with the expression of MUC5AC” (Guerbet, priority 2010, dated 2015).

With `CC[C@H](C)[C@@H]1NC(=O)[C@H](CO)NC(=O)[C@@H]2CCCN2C(=O)[C@@H](N)CSSC[C@@H](C(N)=O)NC(=O)[C@H](CC(C)C)NC(=O)[C@H](CC(C)C)NC(=O)[C@@H]2CCCN2C(=O)[C@H](Cc2ccc(O)cc2)NC1=O` [peptide CPSIYPLLC, Cys-Pro-Ser-He-Tyr-Pro-Leu-Leu-Cys] (H-CPSIYPLLC-NH2; disulfide 1-9; N-terminus and C-terminus assumed), the “recognition of the MUC2 glycoprotein on sections of colonic adenoma” value at MUC2 glycoprotein is reported as “absence of recognition”. Also, the Kd worked out at 659 µM on rat MUC5AC glycoprotein and 549 µM in [1]. On MUC5AC, the “labeling of sections of healthy human gastric epithelia” value is on record as “demonstrate the specificity”.
Take “PEG750-C60c (CPSIYPLLC; not fully specified; cysteine pairing not given here; also: PEG750 attached, site not given here, coupled to iron particle)”: the “MRI image of the gastric region in contact with the lumen” value in [2] is reported as “clear darkening”. The “iron concentration on the cells” value in series [3] is given as “significantly increases”; in [4], “does not change proportionally”. For the same compound, the “relaxivity r1” value stood at 30.54 s⁻¹ mM⁻¹ in the series “Relaxivity measurements” (20 MHz) and 14.94 s⁻¹ mM⁻¹ in “Relaxivity measurements” (60 MHz). Moreover, the Magnetic diameter in series [5] turned out to be 7.2 nm. Also, in series [5], the “Magnetization at saturation (magn.)” value came to 70 Am^2/Kg. Also, the “hydrodynamic diameter Z ave (PCS)” value in series [5] is 28 nm. For the same compound, the “Iron concentration in the plasma” value in series [6] (MUC5AC-negative mice, 20 μmol Fe/kg) was 471.5 µmol/L; in [6] (MUC5AC-negative mice, 20 μmol Fe/kg, listed as PEG750-C60C) it was 442.5 µmol/L and 350.7 µmol/L and 337 µmol/L; in series [6] (MUC5AC-negative mice, 100 μmol Fe/kg) it was 2806 µmol/L and 3638 µmol/L; in series [6] (MUC5AC-positive mice, 20 μmol Fe/kg), 486.8 µmol/L and 380 µmol/L; in [6] (MUC5AC-positive mice, 20 μmol Fe/kg, listed as PEG750-C60C), 312.4 µmol/L; in [6] (MUC5AC-positive mice, 40 μmol Fe/kg) it was 909.6 µmol/L. For the same compound, the “Iron concentration in the plasma” value in series [6] (MUC5AC-positive mice, 100 μmol Fe/kg) was 1555.5 µmol/L; in series [6] (MUC5AC-positive mice, 100 μmol Fe/kg, listed as PEG750-C60C), 2590 µmol/L and 3871 µmol/L and 1959 µmol/L. In addition, the “accumulation in the tumors” value in [7] is “only when they secrete MUC5AC”. The “MRI image contrast of the tumor” value is “no variation in contrast” in [8] (100 μmol/kg) and “negative contrast image” in [9] (100 μmol/kg). In series [8] (same conditions (20 and 100 μmol of iron/kg)), the “change of signal in the tumor” value was “no change or a slight increase”. Further, the “signal variation in the tumor (ΔSI)” value is listed as −10% in series [9] (20 μmol of iron/kg, post-contrast) and −15% in series [9] (100 μmol of iron/kg). The “labeling / accumulation in the mouse gastric tissue” value in the series on mouse gastric tissue is on record as “specific labeling”.
